The values below come from the NIST ThermoML archive (doi:10.1016/j.fluid.2018.07.020).

± gives the expanded uncertainty stated by the source.

The nature of data set [1]: Molar enthalpy of transition or fusion. As to conditions: DSC.
The conditions of data set [2]: for Normal melting temperature: Crystal 1, DTA; for Triple point temperature: Crystal 2, DSC.

As to `CCCC[P+](CCCC)(CCCC)CCCS(=O)(=O)[O-]` [3-(tributylphosphonio)propane-1-sulfonate], the “Molar enthalpy of transition or fusion” value in data set [1] (Crystal 1) worked out at 9.7 ± 2.2 kJ/mol. The “Molar enthalpy of transition or fusion” value in data set [1] (Crystal 2) turned out to be 12.9 ± 2.2 kJ/mol. In data set [2], the Normal melting temperature stood at 160.02 ± 0.71 °C and the Triple point temperature is given as 379.9 ± 0.94 K.

Turning to `CCCCCC[N+](CCCCCC)(CCCCCC)CCCCS(=O)(=O)[O-]` [4-(trihexylammonio)butane-1-sulfonate], the “Molar enthalpy of transition or fusion” value in data set [1] (Crystal 1) is 18 ± 2.8 kJ/mol. Also, the “Molar enthalpy of transition or fusion” value in data set [1] (Crystal 2) was found to be 6 ± 2.8 kJ/mol. In data set [2], the Normal melting temperature was found to be 199.60 ± 0.71 °C and the Triple point temperature was determined as 407.51 ± 0.94 K.

For `CCCC[P+](CCCC)(CCCC)CCCCS(=O)(=O)[O-]` [4-(tributylphosphonio)butane-1-sulfonate], in data set [1] (Crystal 1), the “Molar enthalpy of transition or fusion” value amounted to 19.7 ± 2.3 kJ/mol. The Normal melting temperature in data set [2] amounted to 173.57 ± 0.71 °C.

For `CC[N+](CC)(CC)CCCS(=O)(=O)[O-]` [3-(triethylammonio)propane-1-sulfonate], in data set [1] (Crystal 1), the “Molar enthalpy of transition or fusion” value worked out at 15.3 ± 1.5 kJ/mol. In addition, in data set [1] (Crystal 2), the “Molar enthalpy of transition or fusion” value came out at 9.7 ± 1.4 kJ/mol. Besides, in data set [2], the Normal melting temperature was 172.88 ± 0.71 °C and the Triple point temperature was found to be 360.22 ± 0.94 K.

On to `O=S(=O)([O-])CCC[n+]1ccccc1` [[PyC3S]], for which the “Molar enthalpy of transition or fusion” value in data set [1] (Crystal 1) came out at 39.5 ± 1.4 kJ/mol. Moreover, the Normal melting temperature in data set [2] was found to be 273.89 ± 0.71 °C.

On to `CCCCCC[N+](CCCCCC)(CCCCCC)CCCS(=O)(=O)[O-]` [3-(trihexylammonio)propane-1-sulfonate], for which, in data set [1] (Crystal 1), the “Molar enthalpy of transition or fusion” value was 28.4 ± 2.7 kJ/mol. Moreover, in data set [2], the Normal melting temperature was found to be 206.74 ± 0.71 °C.
